Assay [1] deals with iNSC-MSC. Briefly: Differentiation potential of iNSC-MSC under serum free conditions (immunofluorescence). Type of assay: cell-based. The conditions noted are these: methods using decitabine (method 2 & 4) versus methods without. An excerpt: The resultant cells of the four methods express neural differentiation markers Bill, GFAP and NeuN, especially in the surrounded areas of the spheres. On the other hand, they keep NSC markers Sox2, Sox1 and CD90 on the spheres. […] All nuclei were counterstained with DAPI. Scale bar, 50 μm.

For assay [2], the system named is MSC. Briefly: Reprogramming of MSCs toward neural progenitor spheres (neurosphere production). Type of assay: cell-based. The method, then: MSC media contains DMEM F:12, 10% KSR, 5% Glutamax, 5% NNEA, 1% Penicillin/streptomycin. We used 12 well treated plates for production.
MSCs are seeded in culture media and allowed to grow up under serum-free conditions until 80% confluence on adherent conditions using laminin as coat.
At stage 1, fresh media and NSC exosomes (and in two methodologies also we used pluripotent cells to enhance de-differentiation) as a source of linage specific signals, are provided to the cultured MSCs (typically following decitabine treatment), and exposed to NSC exosomes for 1-5 days. Following stage 1, (typically at day 5) stage 2 involves switching out media and NSC exosomes and exposing the cells to the fresh media and NSC exosomes for 5-15 days. After stage 2, (typically at day 15 from the start of stage 1) stage 3 involves switching out media and NSC exosomes with fresh media lacking NSC exosomes and allowing the cells to grow for 5-7 days. After stage 3, (typically at day 20-22 from the start of stage 1), neural progenitor spheres (the primary colonies) are isolated from the culture. After isolation occurs, the neurospheres are picked to keep on suspension for expansion and experimentation. […]

Each structure is given as a SMILES string.

For the compound `Nc1ncn([C@H]2C[C@H](O)[C@@H](CO)O2)c(=O)n1` [decitabine, 5-aza-2′-deoxycytidine], in assay [1], the “immunofluorescence intensities for BII tubulin” value is listed as “significant less iimmunofluorescence intensities”. The “number of primary neurospheres produced” value in assay [2] (MSC cultured with NSC exosomes, day 21 of production (FIG. 2B)) is “enhances the number of spheres produced”. The spheres produced result in assay [2] (MSC treated without NSC exosomes) is listed as “no spheres were found produced”.

Values taken from patent publication US12577532B2, “Xeno-free and transgene-free reprograming of mesenchymal stem cells toward neural progenitor cells” (UNIVERSITY OF CENTRAL FLORIDA RESEARCH FOUNDATION, INC., priority 2019, dated 2026).
